The values that follow are results of earlier work, collected in patent US20110009373A1, “COMPOSITION COMPRISING A COMBINATION OF AN AROMATASE INHIBITOR, A PROGESTIN AND AN OESTROGEN AND ITS USE FOR THE TREATMENT OF ENDOMETRIOSIS” (ASTRAZENECA AB, priority 2003, published 2011).

For the series, the system named is endometriotic lesion. The note with it: addition of oestrogen to letrozole; wild type mice and aromatase knockout mice.

Consider `N#Cc1ccc(C(c2ccc(C#N)cc2)n2cncn2)cc1` [letrozole], for which the Endometriotic lesion sizes entry was “increases in the endometriotic lesion sizes”.
